This experiment deals with Human eIF4E (Homo sapiens (Human), UniProt P06730). In words: Human eIF4E/4G binding assay (time-resolved fluorescence, HH-eIF4E and biotin-labeled 4G2 peptide). As to conditions: inhibition of binding of His-tagged human eIF4E (aa 28-217) to biotin-labeled 4G2 peptide. The protocol:
The protein was solubilized with 8 M urea and purified under denaturing conditions using nickel-charged HisTrap HP columns (GE Healthcare). The protein was refolded by diluting to approximately 0.25 mg/mL with 6 M urea, 20 mM Hepes pH 7.0, 500 mM NaCl, 1 mM DTT, 1 mM EDTA, and 0.5 M arginine.HCl, and then dialyzing overnight into the same buffer without the urea. The protein was further dialyzed into 20 mM Hepes pH 6.5, 50 mM NaCl, 1 mM EDTA, and 1 mM DTT, filtered, and then concentrated using Hitrap SP sepharose FF columns (GE Healthcare). The protein was dialyzed into 20 mM Hepes pH 7.0, 500 mM NaCl, 5 mM DTT, and 10% glycerol and stored at −80° C. until use. Test compounds (1.6 mM stock in DMSO) were diluted 3 fold in series in DMSO. Compound solutions were diluted 4 fold in Assay Buffer (50 mM sodium phosphate, pH 6.5, 50 mM KCl, 1 mM DTT and 0.5 mg/mL gammaglobulin). […] The samples were incubated at room temperature for 20 minutes. […] IC50 values were calculated using Condoseo software (Genedata AG).

Data on 26 compounds can be found in patent US9073881B2, “Benzoic acid derivatives” (HOFFMANN-LA ROCHE INC., priority 2011, dated 2015).

A value given as a limit tells only on which side of the number the result lay.

Human eIF4E, sequence (P06730 28-217): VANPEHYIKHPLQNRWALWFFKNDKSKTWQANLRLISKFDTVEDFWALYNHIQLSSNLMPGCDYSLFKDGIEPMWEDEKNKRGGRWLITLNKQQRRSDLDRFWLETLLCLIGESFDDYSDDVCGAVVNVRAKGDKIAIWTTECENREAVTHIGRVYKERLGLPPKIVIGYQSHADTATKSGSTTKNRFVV

For the compound `O=C(O)c1cc(-c2nc(-c3ccc(Cl)c(Cl)c3)cs2)ccc1-c1cccc(Cl)c1Cl` [Example 152, 2′,3′-Dichloro-4-[4-(3,4-dichloro-phenyl)-thiazol-2-yl]-biphenyl-2-carboxylic acid], the IC50 – broadly, the point on the concentration scale where inhibition reaches its midpoint – amounted to 2100 nM. This lies in the single-digit micromolar range.

For `CS(=O)(=O)c1ccc(-c2csc(-c3ccc(-c4ccccc4[N+](=O)[O-])c(C(=O)O)c3)n2)cc1` [Example 33, 4-[4-(4-Methanesulfonyl-phenyl)-thiazol-2-yl]-2′-nitro-biphenyl-2-carboxylic acid], the IC50 was more than 80000 nM.

`O=C(O)c1cc(-c2nc(-c3ccc(Cl)c(Cl)c3)cs2)ccc1-c1ccsc1Cl` [Example 145, 2-(2-Chloro-thiophen-3-yl)-5-[4-(3,4-dichloro-phenyl)-thiazol-2-yl]-benzoic acid] registered an IC50 of 2200 nM.

For `O=C(O)c1cc(-c2nc(-c3ccc(Cl)c(Cl)c3)cs2)ccc1-c1ccccc1[N+](=O)[O-]` [Example 15, 4-[4-(3,4-Dichloro-phenyl)-thiazol-2-yl]-2′-nitro-biphenyl-2-carboxylic acid], the IC50 was 2800 nM. The IC50 values of the last two compounds are within 1.5-fold of each other.

`Cc1ccc(Cl)c(-c2ccc(-c3nc(-c4ccc(Cl)c(Cl)c4)cs3)cc2C(=O)O)c1` [Example 144, 2′-Chloro-4-[4-(3,4-dichloro-phenyl)-thiazol-2-yl]-5′-methyl-biphenyl-2-carboxylic acid] gave an IC50 of 1100 nM.

Compound `COc1ccccc1-c1ccc(-c2nc(-c3ccc(Cl)c(Cl)c3)cs2)cc1C(=O)O` [Example 92, 4-[4-(3,4-Dichloro-phenyl)-thiazol-2-yl]-2′-methoxy-biphenyl-2-carboxylic acid] returned an IC50 of 4800 nM.

Take `O=C(O)c1cc(-c2nc(-c3ccc(Cl)c(Cl)c3)cs2)ccc1-c1ccccc1` [Example 151, 4-[4-(3,4-Dichloro-phenyl)-thiazol-2-yl]-biphenyl-2-carboxylic acid]: the IC50 amounted to 5900 nM. The IC50 values of the last two compounds are within 1.5-fold of each other.

`CC(=O)c1ccc(Cl)c(-c2ccc(-c3nc(-c4ccc(Cl)c(Cl)c4)cs3)cc2C(=O)O)c1` [Example 118, 5′-Acetyl-2′-chloro-4-[4-(3,4-dichloro-phenyl)-thiazol-2-yl]-biphenyl-2-carboxylic acid] displayed an IC50 of 1500 nM. Against the preceding compound, the IC50 is about 3.9-fold lower.

For `O=C(NCc1cccc(F)c1)c1ccc(-c2ccc(-c3nc(-c4ccc(Cl)c(Cl)c4)cs3)cc2C(=O)O)cc1` [Example 73, 4-[4-(3,4-Dichloro-phenyl)-thiazol-2-yl]-4′-(3-fluoro-benzylcarbamoyl)-biphenyl-2-carboxylic acid], the IC50 turned out to be 2100 nM.

The compound `Cc1ncccc1-c1ccc(-c2nc(-c3ccc(Cl)c(Cl)c3)cs2)cc1C(=O)O` [Example 98, 5-[4-(3,4-Dichloro-phenyl)-thiazol-2-yl]-2-(2-methyl-pyridin-3-yl)-benzoic acid] had an IC50 of 4000 nM.

Turning to `O=C(O)c1cc(-c2nc(-c3ccccn3)cs2)ccc1-c1ccccc1[N+](=O)[O-]` [Example 37, 2′-Nitro-4-(4-pyridin-2-yl-thiazol-2-yl)-biphenyl-2-carboxylic acid], the IC50 is more than 80000 nM.

`CCOc1ccc(-c2ccc(-c3nc(-c4ccc(Cl)c(Cl)c4)cs3)cc2C(=O)O)c(Cl)c1` [Example 89, 2′-Chloro-4-[4-(3,4-dichloro-phenyl)-thiazol-2-yl]-4′-ethoxy-biphenyl-2-carboxylic acid] had an IC50 of 2000 nM.

Compound `O=C(NCc1ccncc1)c1ccc(-c2ccc(-c3nc(-c4ccc(Cl)c(Cl)c4)cs3)cc2C(=O)O)cc1` [Example 69, 4-[4-(3,4-Dichloro-phenyl)-thiazol-2-yl]-4′-[(pyridin-4-ylmethyl)-carbamoyl]-biphenyl-2-carboxylic acid] showed an IC50 of 7100 nM.

Regarding `CC(=O)c1ccccc1-c1ccc(-c2nc(-c3ccc(Cl)c(Cl)c3)cs2)cc1C(=O)O` [Example 117, 2′-Acetyl-4-[4-(3,4-dichloro-phenyl)-thiazol-2-yl]-biphenyl-2-carboxylic acid], the IC50 was 7700 nM. The IC50 values of the last two compounds are within 1.5-fold of each other.

Compound `COc1ccc(-c2ccc(-c3nc(-c4ccc(Cl)c(Cl)c4)cs3)cc2C(=O)O)c(Cl)c1` [Example 94, 2′-Chloro-4-[4-(3,4-dichloro-phenyl)-thiazol-2-yl]-4′-methoxy-biphenyl-2-carboxylic acid] displayed an IC50 of 1500 nM.

The compound `N#Cc1ccc(-c2ccc(-c3nc(-c4ccc(Cl)c(Cl)c4)cs3)cc2C(=O)O)cc1Cl` [Example 114, 3′-Chloro-4′-cyano-4-[4-(3,4-dichloro-phenyl)-thiazol-2-yl]-biphenyl-2-carboxylic acid] showed a 50% inhibitory concentration (IC50) of 1700 nM.

In turn, `Cc1cccc(CNC(=O)c2ccc(-c3ccc(-c4nc(-c5ccc(Cl)c(Cl)c5)cs4)cc3C(=O)O)cc2)c1` [Example 70, 4-[4-(3,4-Dichloro-phenyl)-thiazol-2-yl]-4′-(3-methyl-benzylcarbamoyl)-biphenyl-2-carboxylic acid] returned an IC50 of 1700 nM.

`O=C(O)c1cc(-c2nc(-c3ccc(Br)s3)cs2)ccc1-c1ccccc1[N+](=O)[O-]` [Example 25, 4-[4-(5-Bromo-thiophen-2-yl)-thiazol-2-yl]-2′-nitro-biphenyl-2-carboxylic acid] gave a half-inhibitory concentration (IC50) of 4400 nM.

Turning to `O=C(O)c1cc(-c2nc(-c3ccc(Cl)c(Cl)c3)cs2)ccc1-c1ccc(F)cc1F` [Example 132, 4-[4-(3,4-Dichloro-phenyl)-thiazol-2-yl]-2′,4′-difluoro-biphenyl-2-carboxylic acid], the half-inhibitory concentration (IC50) was 5600 nM.

As for `COc1cccc(-c2ccc(-c3nc(-c4ccc(Cl)c(Cl)c4)cs3)cc2C(=O)O)n1` [Example 85, 5-[4-(3,4-Dichloro-phenyl)-thiazol-2-yl]-2-(6-methoxy-pyridin-2-yl)-benzoic acid], the IC50 turned out to be 9700 nM.

Compound `O=C(NCC1CCOCC1)c1ccc(-c2ccc(-c3nc(-c4ccc(Cl)c(Cl)c4)cs3)cc2C(=O)O)cc1` [Example 60, 4-[4-(3,4-Dichloro-phenyl)-thiazol-2-yl]-4′-[(tetrahydro-pyran-4-ylmethyl)-carbamoyl]-biphenyl-2-carboxylic acid] displayed an IC50 of 8900 nM.

Regarding `O=C(O)c1cc(-c2nc(-c3cccc(Br)c3)cs2)ccc1-c1ccccc1[N+](=O)[O-]` [Example 26, 4-[4-(3-Bromo-phenyl)-thiazol-2-yl]-2′-nitro-biphenyl-2-carboxylic acid], the IC50 stood at 3000 nM. Against the preceding compound, the IC50 is about 3-fold lower.

In the case of `O=C(O)c1cc(-c2nc(-c3ccc(Cl)c(Cl)c3)cs2)ccc1-c1ccccc1Cl` [Example 153, 2′-Chloro-4-[4-(3,4-dichloro-phenyl)-thiazol-2-yl]-biphenyl-2-carboxylic acid], the concentration for half-maximal inhibition (IC50) was found to be 2200 nM.

Regarding `COc1cccc(Cl)c1-c1ccc(-c2nc(-c3ccc(Cl)c(Cl)c3)cs2)cc1C(=O)O` [Example 90, 2′-Chloro-4-[4-(3,4-dichloro-phenyl)-thiazol-2-yl]-6′-methoxy-biphenyl-2-carboxylic acid], the IC50 is 1800 nM. This IC50 and that of the compound before are within 1.5-fold of each other.

Take `O=C(O)c1cc(-c2nc(-c3ccc(Cl)c(Cl)c3)cs2)ccc1-c1ccc(F)cc1` [Example 129, 4-[4-(3,4-Dichloro-phenyl)-thiazol-2-yl]-4′-fluoro-biphenyl-2-carboxylic acid]: the half-maximal inhibitory concentration (IC50) turned out to be 2600 nM.

Compound `O=C(NCCN1CCOCC1)c1ccc(-c2ccc(-c3nc(-c4ccc(Cl)c(Cl)c4)cs3)cc2C(=O)O)cc1` [Example 59, 4-[4-(3,4-Dichloro-phenyl)-thiazol-2-yl]-4′-(2-morpholin-4-yl-ethylcarbamoyl)-biphenyl-2-carboxylic acid] came in with an IC50 of more than 80000 nM.
